From patent US6930110B2, “Substituted alkylaminopyridazinone derivatives, process for the preparation thereof and pharmaceutical composition containing the same” (Egis Gyogyszergyar Rt., priority 2001, dated 2005)
Where a name gives a salt, the structure may show the parent alone. Read-outs that look alike come from different tables or passages of the source.

Legend:
Male Sprague-Dawley rats = test: Elevated plus-maze test in rats; assay type: in vivo, rat; settings: 60 min after treatment, minimal effective dose regarding the time spent in the open arms
Source text: Tests have been performed as described by Pellow and co-workers [J. Neurosci. Methods, 14, 149 (1985)]. A wooden cross, 15 cm wide with 100 cm long arms was used for the experiments. The sides and ends of two opposite arms of the cross were equipped with 40 cm high walls, however, the arms were open to the 15×15 cm central area (closed arms). The two other opposite arms were not encircled by walls (open arms).
Male Sprague-Dawley rats weighing 200-220 g were used for the experiments. The animals were placed in the central area of the equipment 60 min after treatment and the following four parameters have been observed for the 5 min test time: • time spent in the open arms, • time spent in the closed arms, • number of entries into the open arms, • number of entries into the closed arms.
The effect was expressed as percent increase in either the time (measured in sec) spent in the open arms or number of entries into the open arms. MEDs (minimal effective dose) were determined for each compound regarding the time spent in the open arms. Buspirone [8-{4-[4-(2-pyrimidinyl)-1-piperazinyl]butyl}-8-azaspiro[4,5]decane-7,9-dione] was used as the reference substance.

male Wistar rats [1] = test: Vogel lick-conflict (drinking conflict) test; assay type: in vivo, rat; settings: intraperitoneally, 30 min prior to test, number of tolerated shocks
Description: Experiments were performed in a PC operated system (LIIKOSYS, Experimentria, Hungary) consisted of 8 test chambers (20 cm×20 cm×20 cm Plexiglas boxes) each of which was equipped with a water fountain system mounted at appropriate height on the wall of the chamber and metal grid floor for delivering electric shocks. 160-180 g male Wistar rats N=8) were deprived of drinking water 48 h and fasted for 24 h prior to test. Test and reference compounds or vehicle were administered intraperitoneally, 30 min prior to test. All procedures were carried out in a quiet, air-conditioned room between 07:30 and 13:00 h at an ambient temperature of 23±2° C. At the beginning of the test the animals were placed in the test chamber where they had free access to drinking water for a 30 s grace period. After that, electric shocks (600 μA, 0.6 s) were applied through the drinking spout following every 20 licks during the 5 min test period (Vogel et al, 1971). Number of punished licks were recorded and stored by an IBM compatible computer. Means±SEM of numbers of tolerated shocks were calculated in each group, statistical analysis of data was performed by one way ANOVA followed by Duncan's test ([…]). Diazepam [7-chloro-1,3-dihydro-1-methyl-5-phenyl-2H-1,4-benzodiazepine-2-one] was used as the reference substance.

mouse = test: Inhibition of spontaneous motor activity (sedative effect); assay type: in vivo
Description: The effect on spontaneous motor activity was investigated according to Borsy and co-workers [Borsy, J. et al, Arch. Int. Pharmacodyn., 124, 180-190 (1960)] in a ten channel Dews instrument, with 1-1 animal in each channel. Animals were placed into the instrument 60 min after per os treatment with either vehicle or test compound, and interruptions of infrared beams were recorded for 30 min. […] Inhibitory doses (ID50)have been determined by regression analysis. Diazepam was used as the reference substance.

male Wistar rats [2] = test: Effects on blood pressure, radiotelemetry in conscious rats; settings: for Mean blood pressure after treatment with test compound (mmHg), Mean: mean arterial blood pressure for 6 hours after oral treatment; for Results of statistical evaluation: test compound compared to placebo, mean arterial blood pressure for 6 hours after treatment
Description: (§1) The experiments were performed in conscious, freely moving, male Wistar rats using a radiotelemetry system (Data Sciences International, St. Paul, Minn., USA). Prior to treatments rats were implanted with transmitters (type: TL11M2-C50-PXT) that permitted continues monitoring of arterial blood pressure. Under sterile surgical conditions, catheter of the transmitter was introduced into the abdominal aorta for measurement of arterial blood pressure and the transmitter was sutured to the abdominal wall of animals anaesthetised with pentobarbital-Na (60 mg/kg, i.p.; Nembutal inj. Phylaxia-Sanofi, Budapest). After surgery the animals were treated with an antibiotic (1 ml/kg i.m. Tardomyocel comp. inj. ad us. vet., Bayer A G, Leverkusen, Germany). A 7 day postoperative recovery period was allowed. Radio signals emitted by the transmitters were detected by RLA1000 type receivers placed under each animal's cage. The data were collected, saved and evaluated using the Dataquest IV. software from Data Sciences. The computer was set to sample the parameters for 10 seconds in every second minute.
(§2) The test substances or vehicle (methyl cellulose 0.4% w/v) were administered orally by gavage in a volume of 1 ml/kg at about 10 a.m. The effects of test items were measured for 6 hours. The effect of each compound was compared with that caused by vehicle treatment using two-way analysis of variance for repeated measures with Scheffe's post hoc test.

male Wistar rats [3] = settings: rat, in vivo
Description: as §1, §2

[4] = per os, 60 min before test, interruptions of infrared beams recorded for 30 min

| Structure (SMILES) | MED in mg/kg po. (Male Sprague-Dawley rats) | MED in mg/kg ip. (male Wistar rats [1]) | melting point | other results |
| --- | --- | --- | --- | --- |
| O=c1[nH]ncc(Cl)c1NCCCCN1CCN(c2cccc3c2OCCO3)CC1 [Example 4, 5-chloro-4-{4-[4-(2,3-dihydrobenzo[1,4]dioxine-5-yl)-piperazine-1-yl]-butylamino}-2H-piridazine-3-one] | 1.0 mg/kg | 20.0 mg/kg | – | ID50 in mg/kg po. (mouse; in vivo, po): 30.0 mg/kg |
| CC(C)(C)n1ncc(Cl)c(NCCN2CCN(c3cccc4c3OCCO4)CC2)c1=O [Example 8, 2-tert.-butyl-5-chloro-4-{2-[4-(2,3-dihydrobenzo-[1,4]dioxine-5-yl)piperazine-1-yl]ethylamino}-2H-pyridazine-3-one] | – | – | 177 to 178 °C | Mean blood pressure after treatment with test compound (mmHg), Mean (male Wistar rats [2]): 95.4 mmHg; Results of statistical evaluation (male Wistar rats [2]): N.S. |
| O=C1CC2(CCCC2)CC(=O)N1CCCCN1CCN(c2ncccn2)CC1 [Buspirone, 8-{4-[4-(2-pyrimidinyl)-1-piperazinyl]butyl}-8-azaspiro[4,5]decane-7,9-dione, reference compound] | 3.0 mg/kg | – | – | – |
| O=c1[nH]ncc(Cl)c1NCCCN(CCOc1cccc2c1OCCO2)Cc1ccccc1 [Example 3, 4-{3-[benzyl-[2-(2,3-dihydrobenzo[1,4]dioxine-5-yloxy)ethyl]-amino]propylamino}-5-chloro-2H-pyridazine-3-one hydrochloride] | 10.0 mg/kg | – | – | – |
| Cn1ncc(NCCN2CCN(c3cccc4c3OCCO4)CC2)cc1=O [Example 14, 5-{2-[4-(2,3-dihydro1,4-benzodioxine-5-yl)-piperazine-1-yl]-ethylamino}-2-methyl-2H-pyridazine-3-one] | – | – | 188 to 190 °C | – |
| CN(CCN1CCN(c2cccc3c2OCCO3)CC1)c1cnn(C)c(=O)c1 [Example 16, 5-(2-(4-(2,3-dihydro-benzo[1,4]dioxine-5-yl)-piperazine-1-yl)-ethyl-methyl-amino)-2-methyl-2H-pyridazine-3-one-hydrochloride] | – | – | – | Mean blood pressure after treatment with test compound (mmHg), Mean (male Wistar rats [2]): 105.2 mmHg; Results of statistical evaluation (male Wistar rats [2]): N.S. |
| CN(CCN1CCN(c2cccc3c2OCCO3)CC1)c1cn[nH]c(=O)c1Cl [Example 7, 4-chloro-5-{2-[4-(2,3-dihydrobenzo[1,4]dioxine-5-yl)-piperazine-1-yl]ethyl}methylamino-2H-pyridazine-3-one] | – | <10.0 mg/kg | – | Results of statistical evaluation (male Wistar rats [3]): N.S.; Mean blood pressure after treatment with test compound (mmHg), Mean (male Wistar rats [3]; po): 97.0 mmHg |
| O=c1cc(NCCN2CCN(c3cccc4c3OCCO4)CC2)cn[nH]1 [Example 10, 5-{2-[4-(2,3-dihydro-1,4-benzodioxine-5-yl)-piperazine-1-yl]-ethylamino}-2H-pyridazine-3-one] | 0.01 mg/kg | 5.0 mg/kg | 244 to 246 °C | ID50 in mg/kg po. (mouse; [4]): 53.3 mg/kg |
| CN(CCN1CCN(c2cccc3c2OCCO3)CC1)c1cnn(C)c(=O)c1 (as salt: hydrochloride) [Example 16, 5-(2-(4-(2,3-dihydro-benzo[1,4]dioxine-5-yl)-piperazine-1-yl)-ethyl-methyl-amino)-2-methyl-2H-pyridazine-3-one-hydrochloride] | – | – | 249 to 251 °C | – |
| O=c1[nH]nccc1NCCCNCCOc1cccc2c1OCCO2 (as salt: hydrochloride) [Example 9, 4-{3-[2-(2,3-dihydrobenzo[1,4]dioxine-5-yloxy)ethylamino]-propylamino}-2H-pyridazine-3-one] | – | – | 203 to 204 °C | – |
| CCCN(CCCNc1c(Cl)cn[nH]c1=O)CCOc1cccc2c1OCCO2 [Example 2, 5-chloro-4-(3-{[2-(2,3-dihydrobenzo[1,4]dioxine-5-yloxy)-ethyl]propyl-amino}propylamino)-2H-pyridazine-3-one] | 10.0 mg/kg | 20.0 mg/kg | 87 to 89 °C | – |
| O=c1cc(NCCNCCOc2cccc3c2OCCO3)cn[nH]1 [Example 13, 5-{2-[2-(2,3-dihydrobenzo[1,4]dioxine-5-yloxy)ethylamino)-ethylamino)-2H-pyridazine-3-one] | – | – | 81 to 83 °C | – |
| O=c1[nH]ncc(Cl)c1NCCCN(CCOc1cccc2c1OCCO2)Cc1ccccc1 (as salt: hydrochloride) [Example 3, 4-{3-[benzyl-[2-(2,3-dihydrobenzo[1,4]dioxine-5-yloxy)ethyl]-amino]propylamino}-5-chloro-2H-pyridazine-3-one hydrochloride] | – | – | 207 to 209 °C | – |
| CN1C(=O)CN=C(c2ccccc2)c2cc(Cl)ccc21 [Diazepam, 7-chloro-1,3-dihydro-1-methyl-5-phenyl-2H-1,4-benzodiazepine-2-one, reference compound] | – | 5.0 mg/kg | – | ID50 in mg/kg po. (mouse; [4]): 7.0 mg/kg |
| O=c1[nH]ncc(NCCN2CCN(c3cccc4c3OCCO4)CC2)c1Cl [Example 5, 4-chloro-5-{2-[4-(2,3-dihydrobenzo[1,4]dioxine-5-yl)-piperazin-1-yl]-ethylamino}-2H-pyridazine-3-one] | 0.003 mg/kg | – | 217 to 219 °C | ID50 in mg/kg po. (mouse; [4]): 11.0 mg/kg |
| CN(CCN1CCN(c2cccc3c2OCCO3)CC1)c1cnn(C)c(=O)c1Cl [Example 17, 4-chloro-5-({2-[4-(2,3-dihydro-benzo[1,4]dioxine-5-yl)-piperazine-1-yl]-ethyl}-methyl-amino)-2-methyl-2H-pyridazine-3-one] | – | – | 114 to 116 °C | – |
| O=c1cc(NCCCN2CCN(c3cccc4c3OCCO4)CC2)cn[nH]1 [Example 12, 5-{3-[4-(2,3-dihydro-1,4-benzodioxine-5-yl)piperazine-1-yl]-propylamino}-2H-pyridazine-3-one] | – | – | 158 to 160 °C | Mean blood pressure after treatment with test compound (mmHg), Mean (male Wistar rats [2]): 89.9 mmHg; Results of statistical evaluation (male Wistar rats [2]): N.S. |
| Cn1ncc(NCCN2CCN(c3cccc4c3OCCO4)CC2)c(Cl)c1=O.O [Example 6, 4-chloro-5-{2-[4-(2,3-dihydro-1,4-benzodioxine-5-yl)-piperazine-1-yl]-ethylamino}-2-methyl-2H-piridazine-3-one monohydrate] | – | <5.0 mg/kg | – | Mean blood pressure after treatment with test compound (mmHg), Mean (male Wistar rats [2]): 106.3 mmHg; Results of statistical evaluation (male Wistar rats [2]): N.S. |
| O=c1cc(NCCN2CCN(c3cc(Cl)cc4c3OCCO4)CC2)cn[nH]1 [Example 11, 5-{2-[4-(7-chloro-2,3-dihydrobenzo[1,4]dioxine-5-yl)-piperazine-1-yl]ethylamino}-2H-pyridazine-3-one] | – | 20.0 mg/kg | 115 to 117 °C | Mean blood pressure after treatment with test compound (mmHg), Mean (male Wistar rats [2]): 101.5 mmHg; Results of statistical evaluation (male Wistar rats [2]): N.S. |
| O=c1[nH]nccc1NCCCNCCOc1cccc2c1OCCO2 [Example 9, 4-{3-[2-(2,3-dihydrobenzo[1,4]dioxine-5-yloxy)ethylamino]-propylamino}-2H-pyridazine-3-one] | 0.3 mg/kg | – | – | ID50 in mg/kg po. (mouse; [4]): >30.0 mg/kg |
